Common to all, as to test: AK assay 384-well format, Prestwick library screening
For experiment [1], the system named is E. coli. In kind it is cell-based, Escherichia coli. The settings on record: Escherichia coli, 3 h, 50 μM final drug concentration.
In experiment [2] the test system is K. pneumoniae. In kind it is cell-based, Klebsiella pneumoniae. The note with it: Klebsiella pneumoniae, 3 h, 50 μM final drug concentration.
In experiment [3] the test system is P. aeruginosa. It counts as cell-based, Pseudomonas aeruginosa. The settings on record: Pseudomonas aeruginosa, 3 h, 50 μM final drug concentration.
In experiment [4] the test system is S. aureus strain USA300-0114. In kind it is cell-based, Staphylococcus aureus. The settings on record: Staphylococcus aureus, USA300, 3 h, 50 μM final drug concentration.
In experiment [5] the test system is E. faecium. In kind it is cell-based, Enterococcus faecium. The settings on record: Enterococcus faecium, 3 h, 50 μM final drug concentration.
The test system of experiment [6] is A. baumannii strain 98-37-09. It counts as cell-based, Acinetobacter baumannii. The note with it: Acinetobacter baumannii, 983709, 3 h, 50 μM final drug concentration.
The test system of experiment [7] is E. cloacae. It counts as cell-based, Enterobacter cloacae. The settings on record: Enterobacter cloacae, 3 h, 50 μM final drug concentration.
Where [8] appears, read: 384-well format, cutoff for positive-scoring molecules 3-fold increase, read-out: AK-based Prestwick Library Screening Results, E. coli (increase in extracellular AK activity).
The mark [9] stands for this setting: 384-well format, cutoff for positive-scoring molecules 3-fold increase, read-out: AK-based Prestwick Library Screening Results, K. pneumoniae (increase in extracellular AK activity).
[10] abbreviates: 384-well format, cutoff for positive-scoring molecules 3-fold increase, read-out: AK-based Prestwick Library Screening Results, P. aeruginosa (increase in extracellular AK activity).
Where [11] appears, read: 384-well format, cutoff for positive-scoring molecules 3-fold increase, read-out: AK-based Prestwick Library Screening Results, S. aureus (increase in extracellular AK activity).
Where [12] appears, read: 384-well format, cutoff for positive-scoring molecules 3-fold increase, read-out: AK-based Prestwick Library Screening Results, E. faecium (increase in extracellular AK activity).
[13] abbreviates: 384-well format, cutoff for positive-scoring molecules 3-fold increase, read-out: AK-based Prestwick Library Screening Results, A. baumannii (increase in extracellular AK activity).
The mark [14] stands for this setting: 384-well format, cutoff for positive-scoring molecules 3-fold increase, read-out: AK-based Prestwick Library Screening Results, E. cloacae (increase in extracellular AK activity).
Setting [15] is: planktonic, cutoff for positive-scoring molecules 3-fold increase, read-out: AK-based Prestwick Library Screening Results, E. coli (fold increase in extracellular AK activity).
[16] abbreviates: planktonic, cutoff for positive-scoring molecules 3-fold increase, read-out: AK-based Prestwick Library Screening Results, K. pneumoniae (fold increase in extracellular AK activity).
The mark [17] stands for this setting: planktonic, cutoff for positive-scoring molecules 3-fold increase, read-out: AK-based Prestwick Library Screening Results, P. aeruginosa (fold increase in extracellular AK activity).
Where [18] appears, read: planktonic, cutoff for positive-scoring molecules 3-fold increase, read-out: AK-based Prestwick Library Screening Results, S. aureus (fold increase in extracellular AK activity).
The mark [19] stands for this setting: planktonic, cutoff for positive-scoring molecules 3-fold increase, read-out: AK-based Prestwick Library Screening Results, E. faecium (fold increase in extracellular AK activity).
[20] abbreviates: planktonic, cutoff for positive-scoring molecules 3-fold increase, read-out: AK-based Prestwick Library Screening Results, A. baumannii (fold increase in extracellular AK activity).
Setting [21] is: planktonic, cutoff for positive-scoring molecules 3-fold increase, read-out: AK-based Prestwick Library Screening Results, E. cloacae (fold increase in extracellular AK activity).

SMILES strings stand for the structures. Counter-ions that a name gives are not always drawn. Like-named read-outs stand apart in the source and are kept apart here.

Consider `C[C@]12CCC(=O)C=C1C=C[C@@H]1[C@@H]2CC[C@@]2(C)[C@H]1CC[C@@]2(O)CCC(=O)O` [Canrenoic acid potassium salt], for which the fold induction at 50 µM in experiment [1] (planktonic E. coli, 384-well, cutoff for positive-scoring molecules 3-fold increase, read-out: AK-based Prestwick Library Screening Results: E. coli (increase in extracellular AK activity)) came out at 1.4; in experiment [2] (planktonic K. pneumoniae, 384-well, cutoff for positive-scoring molecules 3-fold increase, read-out: AK-based Prestwick Library Screening Results: K. pneumoniae (increase in extracellular AK activity)) it was 0.9; in experiment [3] (planktonic P. aeruginosa, 384-well, cutoff for positive-scoring molecules 3-fold increase, read-out: AK-based Prestwick Library Screening Results: P. aeruginosa (increase in extracellular AK activity)) it was 1.3; in experiment [4] (planktonic S. aureus, 384-well, cutoff for positive-scoring molecules 3-fold increase, read-out: AK-based Prestwick Library Screening Results: S. aureus (increase in extracellular AK activity)), 1.1; in experiment [5] (planktonic E. faecium, 384-well, cutoff for positive-scoring molecules 3-fold increase, read-out: AK-based Prestwick Library Screening Results: E. faecium (increase in extracellular AK activity)) it was 1; in experiment [6] (planktonic A. baumannii, 384-well, cutoff for positive-scoring molecules 3-fold increase, read-out: AK-based Prestwick Library Screening Results: A. baumannii (increase in extracellular AK activity)), 1.5. In addition, the fold induction at 50 µM in experiment [7] (planktonic E. cloacae, 384-well, cutoff for positive-scoring molecules 3-fold increase, read-out: AK-based Prestwick Library Screening Results: E. cloacae (increase in extracellular AK activity)) amounted to 1.2.

As to `COc1ccccc1OCC(O)COC(N)=O` (stereo not drawn) [Methocarbamol], the fold induction at 50 µM in experiment [1] (setting [8]) was 0.9; in experiment [2] (setting [9]), 0.6; in experiment [3] (setting [10]), 0.9; in experiment [4] (setting [11]), 0.8; in experiment [5] (setting [12]), 0.9; in experiment [6] (setting [13]), 0.9. Moreover, the fold induction at 50 µM in experiment [7] (setting [14]) worked out at 1.

Consider `NC(=O)c1cc[n+](CC2=C(C(=O)[O-])N3C(=O)[C@@H](NC(=O)Cc4cccs4)[C@H]3SC2)cc1` [Cefalonium], for which the fold induction at 50 µM in experiment [1] (planktonic E. coli, positive cutoff 3-fold increase, read-out: AK-based Prestwick library screening result, E. coli (fold increase in extracellular AK activity)) stood at 16.6; in experiment [2] (planktonic K. pneumoniae, positive cutoff 3-fold increase, read-out: AK-based Prestwick library screening result, K. pneumoniae (fold increase in extracellular AK activity)) it was 3.8; in experiment [3] (planktonic P. aeruginosa, positive cutoff 3-fold increase, read-out: AK-based Prestwick library screening result, P. aeruginosa (fold increase in extracellular AK activity)) it was 0.8; in experiment [4] (planktonic S. aureus, positive cutoff 3-fold increase, read-out: AK-based Prestwick library screening result, S. aureus (fold increase in extracellular AK activity)), 1.6; in experiment [5] (planktonic E. faecium, positive cutoff 3-fold increase, read-out: AK-based Prestwick library screening result, E. faecium (fold increase in extracellular AK activity)) it was 0.9; in experiment [6] (planktonic A. baumannii, positive cutoff 3-fold increase, read-out: AK-based Prestwick library screening result, A. baumannii (fold increase in extracellular AK activity)) it was 1.5. Also, the fold induction at 50 µM in experiment [7] (planktonic E. cloacae, positive cutoff 3-fold increase, read-out: AK-based Prestwick library screening result, E. cloacae (fold increase in extracellular AK activity)) was 1.4.

Turning to `c1ccc(CN(CC2=NCCN2)c2ccccc2)cc1` [Antazoline hydrochloride], the fold induction at 50 µM in experiment [1] (setting [8]) turned out to be 0.7; in experiment [2] (setting [9]), 0.6; in experiment [3] (setting [10]), 0.7; in experiment [4] (setting [11]), 0.8; in experiment [5] (setting [12]) it was 1; in experiment [6] (setting [13]), 0.8. Further, in experiment [7] (setting [14]), the fold induction at 50 µM stood at 0.8.

As to `CC(C)(C(=O)c1cccnc1)c1cccnc1` [Metyrapone], the fold induction at 50 µM in experiment [1] (setting [15]) turned out to be 0.9; in experiment [2] (setting [16]) it was 0.7; in experiment [3] (setting [17]) it was 1; in experiment [4] (setting [18]), 0.8; in experiment [5] (setting [19]), 0.8; in experiment [6] (setting [20]), 1. Further, the fold induction at 50 µM in experiment [7] (setting [21]) was 1.2.

Turning to `CCn1cc(C(=O)O)c(=O)c2cnc(N3CCCC3)nc21` [Piromidic acid], the fold induction at 50 µM in experiment [1] (setting [15]) amounted to 0.6; in experiment [2] (setting [16]) it was 0.6; in experiment [3] (setting [17]), 0.5; in experiment [4] (setting [18]) it was 0.7; in experiment [5] (setting [19]), 0.9; in experiment [6] (setting [20]) it was 0.5. Moreover, the fold induction at 50 µM in experiment [7] (setting [21]) was 0.6.

For `CCC1(C)CC(=O)NC1=O` (stereo not drawn) [Ethosuximide], the fold induction at 50 µM in experiment [1] (setting [8]) amounted to 0.6; in experiment [2] (setting [9]), 0.6; in experiment [3] (setting [10]), 0.5; in experiment [4] (setting [11]), 0.5; in experiment [5] (setting [12]), 0.9; in experiment [6] (setting [13]), 0.5. Further, the fold induction at 50 µM in experiment [7] (setting [14]) worked out at 0.6.

Regarding `O=C1C(O)=C([C@H]2CC[C@H](c3ccc(Cl)cc3)CC2)C(=O)c2ccccc21` [Atovaquone], the fold induction at 50 µM in experiment [1] (planktonic, cutoff for positive 3-fold increase, read-out: AK-based Prestwick Library Screening Results, E. coli (fold increase in extracellular AK activity)) was determined as 1.1; in experiment [2] (planktonic, cutoff for positive 3-fold increase, read-out: AK-based Prestwick Library Screening Results, K. pneumoniae (fold increase in extracellular AK activity)), 0.8; in experiment [3] (planktonic, cutoff for positive 3-fold increase, read-out: AK-based Prestwick Library Screening Results, P. aeruginosa (fold increase in extracellular AK activity)) it was 1; in experiment [4] (planktonic, cutoff for positive 3-fold increase, read-out: AK-based Prestwick Library Screening Results, S. aureus (fold increase in extracellular AK activity)), 1.2; in experiment [5] (planktonic, cutoff for positive 3-fold increase, read-out: AK-based Prestwick Library Screening Results, E. faecium (fold increase in extracellular AK activity)), 1; in experiment [6] (planktonic, cutoff for positive 3-fold increase, read-out: AK-based Prestwick Library Screening Results, A. baumannii (fold increase in extracellular AK activity)), 1.2. Further, the fold induction at 50 µM in experiment [7] (planktonic, cutoff for positive 3-fold increase, read-out: AK-based Prestwick Library Screening Results, E. cloacae (fold increase in extracellular AK activity)) was 1.4.

As for `CCN1C(=O)NC(c2ccccc2)C1=O` (stereo not drawn) [Ethotoin], the fold induction at 50 µM is 1.2 in experiment [1] (cutoff for positive-scoring molecules 3-fold increase, read-out: AK-based Prestwick Library Screening Results, E. coli (fold increase in extracellular AK activity)); 1 in experiment [2] (cutoff for positive-scoring molecules 3-fold increase, read-out: AK-based Prestwick Library Screening Results, K. pneumoniae (fold increase in extracellular AK activity)); 0.9 in experiment [3] (cutoff for positive-scoring molecules 3-fold increase, read-out: AK-based Prestwick Library Screening Results, P. aeruginosa (fold increase in extracellular AK activity)); 1.2 in experiment [4] (cutoff for positive-scoring molecules 3-fold increase, read-out: AK-based Prestwick Library Screening Results, S. aureus (fold increase in extracellular AK activity)); 1 in experiment [5] (cutoff for positive-scoring molecules 3-fold increase, read-out: AK-based Prestwick Library Screening Results, E. faecium (fold increase in extracellular AK activity)); 1.1 in experiment [6] (cutoff for positive-scoring molecules 3-fold increase, read-out: AK-based Prestwick Library Screening Results, A. baumannii (fold increase in extracellular AK activity)). In experiment [7] (cutoff for positive-scoring molecules 3-fold increase, read-out: AK-based Prestwick Library Screening Results, E. cloacae (fold increase in extracellular AK activity)), the fold induction at 50 µM was 1.6.

For the origin of these results see patent publication US10004701B2, “Methods and compositions for treating infection” (UNIVERSITY OF ROCHESTER, priority 2012, dated 2018).
